Consider five compounds from patent publication US20220002671A1, “T Cells with Improved Mitochondrial Function” (Abraham J and Phyllis Katz Cord Blood Foundation, priority 2018, published 2022).

For test [1], the system named is mitochondrial transfer from BM-MSC to UCB iTregs. Briefly: Mitochondrial transfer from mt-GFP lentivirus transduced MSC into iTregs, flow cytometry. The test is classed as cell-based, human. A general note: A flow cytometer gives signals particle by particle.
Test [2] concerns TNT formation. The note with it: Sáenz-de-Santa-María et al., Oncotarget, 2017; cited from earlier work.
The test system of test [3] is mitochondrial transfer from BM-MSC to UCB iTregs. In words: Mitochondrial transfer from BM-MSC into UCB iTregs, MitoTracker Red FM by confocal microscopy. The format is cell-based, human.
Test [4] relates to BACH2, SENP3, Foxp3 in iTreg. Briefly: iTreg Foxp3, BACH2 and SENP3 protein expression. As to conditions: after cytochalasin B treatment. The format is cell-based, human.
The test system of test [5] is mitochondrial transfer from hBM-MSC to iTreg. Briefly: Mitochondrial transfer from BM-MSC into iTregs, MitoTracker green by flow cytometry. The format is cell-based, human. As to conditions: Cytochalasin B 350 nM treated BM-MSC, 24 h, n=6; Mock 2208±122.1.

In the case of `C=C(C)[C@H]1Cc2c(ccc3c2O[C@@H]2COc4cc(OC)c(OC)cc4[C@@H]2C3=O)O1` [rotenone], the “transfer of mitochondria into iTregs from rotenone treated MSC” value in test [1] (rotenone treated mt-GFP MSC platform, 72 hrs) was “do not transfer”. For `C=C1[C@@H](C)[C@H]2[C@H](Cc3ccccc3)NC(=O)[C@]23[C@H](OC(C)=O)/C=C/[C@@](C)(O)C(=O)[C@@H](C)C/C=C/[C@H]3[C@@H]1O` [Cytocalasin D, Cytochalasin D], the TNT formation entry in test [2] is on record as “significant reduction”.

Turning to `CC(=O)N[C@@H](CS)C(=O)O` [N-acetylcysteine], the “mitochondria uptake by Treg (confocal)” value in test [3] (200 uM added to BM-MSC+iTreg culture, 24-36 h) is “minimally reduced”. As for `Nc1ncnc2c1ncn2[C@@H]1O[C@H](COP(=O)(O)CP(=O)(O)O)[C@@H](O)[C@H]1O` [Adenosine 5′-(α,(β-methylene)diphosphate, Adenosine 5′-(α,β-methylene)diphosphate], the “mitochondrial transfer from BM-MSC to UCB iTregs (mt-GFP+ iTregs)” value in test [1] is given as “significantly blocks mitochondrial transfer”.

As for Cytochalasin B, in test [4], the “iTreg BACH2 protein expression” value was “dramatically decreased” and the “iTreg SENP3 protein expression” value is “no significant effect”. The “mitochondrial transfer from MSC to UCB iTregs (MitoTracker+ iTregs, confocal)” value in test [3] (350 nM, 24 h) is “significantly blocks mitochondrial transfer”. Besides, the “mitochondrial transfer from hBM-MSC to iTreg (MitoTracker MFI)” value in test [5] was 923.8±89 MFI.
